Measured values reported in the OPERA property sets (Mansouri et al. 2018).
Peptide text beside a SMILES is read from it.

Compound	logP
CCOP(=S)(NC(C)C)Oc1ccccc1C(=O)OC(C)C (configuration not stated)	4.12
CCOC(=O)n1cc(F)c(=O)[nH]c1=O	-0.17
O=c1[nH]c(=O)n(C2CCCO2)cc1F (configuration not stated)	-0.27
O=S1(=O)OC(c2ccc(O)cc2)(c2ccc(O)cc2)c2ccccc21	3.02
NC(=O)Nc1cccc(Br)c1	2.08
Clc1ccc(-c2cc(Cl)ccc2Cl)c(Cl)c1	6.22
Clc1cccc2cccnc12	2.44
CC(C)NNC(=O)COc1cccc(Cl)c1	1.91
COc1cc(S(C)=O)ccc1-c1cn2ccnc(OC)c2n1 (configuration not stated)	1.49
CCCCCCc1ccc(O)cc1O	3.45
Nc1cc2ccccc2nn1	1
CN(C)C(=O)C=Cc1ccccc1	1.73
CCCc1ccc([N+](=O)[O-])cc1	3.45
CC(=O)[C@@]1(O)CC[C@H]2[C@@H]3C[C@H](C)C4=CC(=O)C=C[C@]4(C)[C@@]3(F)[C@@H](O)C[C@@]21C	2
O=C(O)Cc1ccc(F)cc1	1.55
O=C(O)COc1ccc(I)cc1	2.69
NC(=O)c1ccc(C(O)C(CO)NC(=O)C(Cl)Cl)cc1 (configuration not stated)	-0.48
COC(=O)C(=O)OC	-0.17
CC(C)=O	-0.24
C1COCCOCCOCCO1	-0.04
CCCCCCCCn1cc(C)c(=O)[nH]c1=O	3.08
CCCCC1C(=O)NC(=O)NC1=O	0.77
COc1cc([N+](=O)[O-])c(OC)cc1CC(C)N (configuration not stated)	1.74

Compound	logP
C/C=C/C=C/C(=O)O	1.33
O=C(Nc1ccccc1)NC1CC1	1.65
Clc1ccc2ncccc2c1	2.73
C=CCC1(C(C)C)C(=O)NC(=O)NC1=O	1.15
CC(=O)Oc1ccc(C(C)=O)cc1	1.29
NC(=O)Nc1ccc(F)cc1	1.04
Cc1cccc(N)c1	1.4
CNC(=O)Oc1ccc(C#N)cc1	0.95
Cn1c(C=[N+](C)[O-])cnc1[N+](=O)[O-]	0.04
C=CCC(CC=C)(NC(C)=O)C(N)=O	0.05
CCC(C(c1ccc(OC)cc1)c1ccc(OC)cc1)[N+](=O)[O-] (configuration not stated)	4.45
CNC(=O)Oc1ccccc1Cl	1.64
Cc1ccccc1C(=O)O	2.46
CC(=O)N[C@@H](C)C(=O)N[C@@H](CC(C)C)C(=O)N[C@H](C(N)=O)C(C)C (Ac-Ala-Leu-Val-NH2)	-0.14
CC(C)c1cc(Oc2ccccc2)cc(C(C)C)c1NC(=S)NC(C)(C)C	6
CC(C)CC(=O)NC(N)=O	0.45
O=[N+]([O-])C=Cc1ccco1	1.56
OCCBr	0.23
NS(=O)(=O)c1cc2c(cc1C(F)(F)F)NCNS2(=O)=O	0.36
CCOP(=O)(OCC)Oc1ccc(SC)cc1Cl	3.05
O=NN(CCCl)C(=O)NC1CCCC1	2.2
CCCCOc1c(OC)cc(CCN)cc1OC	2.32
COc1cc(CCO)ccc1O	0.47

Compound	logP
NC1C2CCC1c1ccccc12 (configuration not stated)	2.13
O=CNC(=O)C1CCC1	-0.7
Cn1cnc2c1c(=O)[nH]c(=O)n2C	-0.78
COc1ccc(N(CCCC(=O)O)C(=O)c2ccc(Cl)cc2)cc1	2.7
CS(=O)(=O)OCCCCOS(C)(=O)=O	-0.52
NCCCCCc1cccnc1	1.41
CC(=O)Oc1ccc(C(N)=O)cc1	0.27
O=C(O)CN1CCN(C(=O)Cn2c(=O)sc3ccc(Cl)cc32)CC1	-0.71
CN(C)c1ccncc1	1.34
Cn1cccc1	1.21
CC(=O)Nc1ccc(O)c(C(C)C)c1	1.71
CCOC(=O)C(=O)OCC	0.56
Cn1cccn1	0.23
Oc1c(Br)cc(Br)cc1Br	4.13
CC(=O)c1ccc2cccccc1-2	2.87
O=C(O)C1CC1	0.63
COc1cc(S(C)=O)ccc1-c1nc2cnncc2[nH]1 (configuration not stated)	0.39
Cc1ccnc2c(O)cccc12	2.41
N#Cc1cccc(O)c1	1.7
CC(C)Br	2.14
NS(=O)(=O)Cc1ccccc1	0.13
